Reference: patent publication US6063777A, “Iminochlorinaspartic acid derivatives” (Wyeth Lederle Japan, Ltd., priority 1996, dated 2000)

Experiments:
[1] = Preliminary experiments: blood half-life after intravenous administration; assay type: in vivo; conditions: rats and rabbits
retinal capillaries = assay: Occlusion of retinal capillaries by PDT, histological findings 24 hours after laser irradiation; assay type: in vivo, rats (Long Evance Rats); conditions: 16 mg/kg
Description: (§1) The following experiments were performed to investigate the optimal treatment parameters (timing of laser irradiation after dosing of the compound; laser irradiation dosage) for selective occlusion of choroidal neoplastic vessels by PDT using the compound of the present invention and a diode laser (produced by Hamamatsu Photonics; wavelength: 672 nm).
(§2) Photocoagulation was induced in rats (Long Evance Rats weighing 200-300 g) by Argon green laser irradiation (irradiation diameter: 100 μm, 140 mW, 0.1 sec) near the retinal papilla on funduc oculi. Ten days after photocoagulation, fundus photographs and fluorescein angiographs were taken and the animals showing development of choroidal neovascularization were used for experiments at the 11th day.
(§3) The compound of the present invention was administered via the tail vein at a dose of 16 mg/kg. After administration, time course distribution of the compound in the eyeball tissues was observed by fluorescence microscopy.
(§4) Laser irradiation was done by using the above-mentioned diode laser. The laser beam was confirmed to extend in the range of 500 μm in diameter on the retinal surface. Duration of irradiation was 4 minutes and the irradiation intensity varied at 30.6, 91.7, 152.9 and 244.9 mW/cm^2 on the retinal surface. These values correspond to 7.4, 22.0, 36.7 and 58.8 J/cm^2, respectively.
(§5) Assessment of the PDT using the compound of the present invention was made based on the fundus photographs taken with a fundus camera (produced by Jenesis Kowa) at 1 hour and 24 hours after laser irradiation. Occlusion of the neoplastic vessels and damage to the surrounding tissues were investigated by fluorescein antiography and histological examinations to assess the selectivity of the therapeutic effect.

choriocapillaris = assay: Occlusion of choriocapillaris by PDT, histological findings 24 hours after laser irradiation; assay type: in vivo, rats (Long Evance Rats); conditions: 16 mg/kg
Description: as §1, §2, §3, §4, §5

[2] = Dancyl methionine test (photoreactivity by TLC or HPLC)
Source text: (§6) When compound (I) was examined by albumin test [that is, a convenient test method for evaluating the affinity to cancerous tissues, in which a chlorin derivative is examined on the change in ultraviolet (UV) absorption spectrum in a mixture form with albumin and in which one of the present inventors has found a certain rule] and dancyl methionine test [that is, a convenient test method for evaluating the strength of the photoreactivity by thin layer chromatography (TLC) or high performance liquid chromatography (HPLC)]

albumin = assay: Albumin test (change in UV absorption spectrum in mixture with albumin); assay type: binding
Source text: as §6

[3] = Stability in vivo and in vitro
eyeball tissues = assay: Time course distribution of the compound in eyeball tissues by fluorescence microscopy; assay type: in vivo, rats (Long Evance Rats); conditions: 16 mg/kg tail vein
Description: as §2, §3

[4] = 7.4 J/cm^2, irradiation 60 min after administration
[5] = 7.4 J/cm^2, irradiation 120 min after administration
[6] = 7.4 J/cm^2, irradiation 240 min after administration
[7] = 22.0 J/cm^2, irradiation 60 min after administration
[8] = 22.0 J/cm^2, irradiation 120 min after administration
[9] = 22.0 J/cm^2, irradiation 240 min after administration
[10] = 22.0 J/cm^2, irradiation immediately after administration
[11] = 36.7 J/cm^2, irradiation 60 min after administration
[12] = 36.7 J/cm^2, irradiation 120 min after administration
[13] = 36.7 J/cm^2, irradiation 240 min after administration
[14] = 36.7 J/cm^2, irradiation immediately after administration
[15] = 58.8 J/cm^2, irradiation 60 min after administration
[16] = 58.8 J/cm^2, irradiation 120 min after administration
[17] = 58.8 J/cm^2, irradiation 240 min after administration
[18] = 58.8 J/cm^2, irradiation immediately after administration

C=Cc1c(C)c2cc3nc(cc4[nH]c(cc5nc(cc1[nH]2)C(C)=C5CCC(=O)NC(CC(=O)O)C(=O)O)c(CCC(=O)NC(CC(=O)O)C(=O)O)c4C)C(C)(O)C3=CC=NO (stereo not drawn) [Compound (I)]
compound in blood ([1]; after 24 hours, intravenous): undetectable in blood after 24 hours | half-life ([1]; blood, intravenous administration): 30 min | Occlusion of retinal capillaries (retinal capillaries; [4]): Closed | Occlusion of retinal capillaries (retinal capillaries; [5]): Open | Occlusion of retinal capillaries (retinal capillaries; [6]): Open | Occlusion of retinal capillaries (retinal capillaries; [7]): Closed | Occlusion of retinal capillaries (retinal capillaries; [8]): Open | Occlusion of retinal capillaries (retinal capillaries; [9]): Open | Occlusion of retinal capillaries (retinal capillaries; [10]): Closed | Occlusion of retinal capillaries (retinal capillaries; [11]): Closed | Occlusion of retinal capillaries (retinal capillaries; [12]): Closed | Occlusion of retinal capillaries (retinal capillaries; [13]): Closed | Occlusion of retinal capillaries (retinal capillaries; [14]): Closed | Occlusion of retinal capillaries (retinal capillaries; [15]): Closed | Occlusion of retinal capillaries (retinal capillaries; [16]): Closed | Occlusion of retinal capillaries (retinal capillaries; [17]): Closed | Occlusion of retinal capillaries (retinal capillaries; [18]): Closed | Occlusion of choriocapillaris (choriocapillaris; [4]): Closed | Occlusion of choriocapillaris (choriocapillaris; [5]): Open | Occlusion of choriocapillaris (choriocapillaris; [6]): Open | Occlusion of choriocapillaris (choriocapillaris; 7.4 J/cm^2, irradiation immediately after administration): Closed | Occlusion of choriocapillaris (choriocapillaris; [7]): Closed | Occlusion of choriocapillaris (choriocapillaris; [8]): Closed | Occlusion of choriocapillaris (choriocapillaris; [9]): Closed | Occlusion of choriocapillaris (choriocapillaris; [10]): Closed | Occlusion of choriocapillaris (choriocapillaris; [11]): Closed | Occlusion of choriocapillaris (choriocapillaris; [12]): Closed | Occlusion of choriocapillaris (choriocapillaris; [13]): Closed | Occlusion of choriocapillaris (choriocapillaris; [14]): Closed | Occlusion of choriocapillaris (choriocapillaris; [15]): Closed | Occlusion of choriocapillaris (choriocapillaris; [16]): Closed | Occlusion of choriocapillaris (choriocapillaris; [17]): Closed | Occlusion of choriocapillaris (choriocapillaris; [18]): Closed | photosensitivity (dancyl methionine test) [2]: strong photosensitivity | cell killing effect when exposed to light ([2]; dancyl methionine test): good cell killing effect when exposed to light | affinity to albumin (albumin): good affinity to albumin | transferability to cancerous tissues (albumin test) (albumin): excellent transferability to cancerous tissues | stability in vivo and in vitro [3]: high stability in vivo, as well as in vitro | fluorescence in choroid, lumens of choriocapillaris, choroidal arteries and veins (eyeball tissues; 5 minutes after administration): fluorescence was observed in the lumens of the choriocapillaris, choroidal arteries and veins | fluorescence in choroidal artery wall (eyeball tissues; 5 minutes after administration): also observed in the choroidal artery wall | fluorescence in retina, artery wall (eyeball tissues; 5 minutes after administration): prominent fluorescence was observed in the artery wall | fluorescence in retina, lumens of the blood capillaries (eyeball tissues; 5 minutes after administration): weak fluorescence was observed in the lumens of the blood capillaries | fluorescence in the entire choroidal neovascular tissues (eyeball tissues; 5 minutes after administration): weak fluorescence | fluorescence intensity, neoplastic vessels versus surrounding tissues (eyeball tissues; 5 minutes after administration): did not clearly differ between the neoplastic vessels and the surrounding tissues | fluorescence from the whole neoplastic vessels (eyeball tissues; 30 minutes to 1 hour after administration): fluorescence from the whole neoplastic vessels increased | fluorescence in choroidal artery wall (eyeball tissues; 2 hours after administration): prominent fluorescence was observed in the choroidal artery wall | fluorescence in lumens of large choroidal vessels and retinal artery wall (eyeball tissues; 2 hours after administration): diminished | fluorescence in the choriocapillaris veins (eyeball tissues; 2 hours after administration): disappeared | fluorescence in choroidal artery wall and retinal vessels (eyeball tissues; 4 hours after administration): gradually diminished | fluorescence in the choroidal neoplastic vessels (eyeball tissues; 4 hours after administration): persisted | fluorescence in choroidal neoplastic vessels and other vessels (eyeball tissues; 24 hours after administration): all disappeared
